# Active and inactive are the calls of the source. No cut-off for these calls is given here.
# Experiments:
# Mus musculus [1] = assay: Hypnotic effect in DBA mouse assessed as increase in pentobarbital-induced duration of loss of righting reflex at 300 mg/kg, ip incubated for 30 mins prior to pentobarbital-challenge; type: functional; details: route intraperitoneal
# Mus musculus [2] = assay: Hypnotic effect in DBA mouse assessed as potentiation of baclofen-induced loss of righting reflex at 300 mg/kg, ig incubated for 30 mins prior to baclofen-challenge; type: functional, organism-based; parameters: dose 300 mg/kg
# Mus musculus [3] = assay: Hypnotic effect in DBA mouse assessed as reduction in pentobarbital-induced onset of loss of righting reflex at 100 mg/kg, ip incubated for 30 mins prior to pentobarbital-challenge (reference value: 60.0 +/- 0.0 min); type: functional; details: route intraperitoneal
# Mus musculus [4] = assay: Hypnotic effect in DBA mouse assessed as increase in baclofen-induced duration of loss of righting reflex at 100 to 300 mg/kg, ip incubated for 30 mins prior to baclofen-challenge relative to vehicle-treated control; type: functional, organism-based
# Mus musculus [5] = assay: Hypnotic effect in DBA mouse assessed as potentiation of baclofen-induced loss of righting reflex at 30 mg/kg, ip incubated for 30 mins prior to baclofen-challenge; type: functional, organism-based; parameters: dose 30 mg/kg
# Mus musculus [6] = assay: Hypnotic effect in DBA mouse assessed as potentiation of pentobarbital-induced loss of righting reflex at 30 mg/kg, ip incubated for 30 mins prior to pentobarbital-challenge; type: functional, organism-based; parameters: dose 30 mg/kg
# Mus musculus [7] = assay: Hypnotic effect in DBA mouse assessed as reduction in baclofen-induced onset of loss of righting reflex at 300 mg/kg, ig incubated for 30 mins prior to baclofen-challenge relative to vehicle-treated control; type: functional, organism-based; parameters: dose 300 mg/kg
# Mus musculus [8] = assay: Hypnotic effect in DBA mouse assessed as potentiation of baclofen-induced loss of righting reflex at 300 mg/kg, ip incubated for 30 mins prior to baclofen-challenge; type: functional, organism-based; parameters: dose 300 mg/kg
# Mus musculus [9] = assay: Hypnotic effect in DBA mouse assessed as increase in pentobarbital-induced duration of loss of righting reflex at 100 mg/kg, ip incubated for 30 mins prior to pentobarbital-challenge; type: functional; details: route intraperitoneal
# Mus musculus [10] = assay: Hypnotic effect in DBA mouse assessed as potentiation of baclofen-induced loss of righting reflex at 100 mg/kg, ip incubated for 30 mins prior to baclofen-challenge; type: functional, organism-based; parameters: dose 100 mg/kg
# Mus musculus [11] = assay: Hypnotic effect in DBA mouse assessed as increase in baclofen-induced duration of loss of righting reflex at 300 mg/kg, ig incubated for 30 mins prior to baclofen-challenge relative to vehicle-treated control; type: functional, organism-based; parameters: dose 300 mg/kg
# Mus musculus [12] = assay: Hypnotic effect in DBA mouse assessed as reduction in baclofen-induced onset of loss of righting reflex over 10 mg/kg, ip incubated for 30 mins prior to baclofen-challenge relative to vehicle-treated control; type: functional, organism-based; parameters: dose 10 mg/kg
# Mus musculus [13] = assay: Hypnotic effect in ip dosed DBA mouse assessed as reduction in baclofen-induced onset of loss of righting reflex incubated 30 mins prior to baclofen-challenge; type: functional, organism-based
# Mus musculus [14] = assay: Hypnotic effect in DBA mouse assessed as potentiation of baclofen-induced loss of righting reflex at 3 mg/kg, ip incubated for 30 mins prior to baclofen-challenge; type: functional, organism-based; parameters: dose 3 mg/kg
# Mus musculus [15] = assay: Hypnotic effect in DBA mouse assessed as reduction in pentobarbital-induced onset of loss of righting reflex at 300 mg/kg, ip incubated for 30 mins prior to pentobarbital-challenge (reference value: 60.0 +/- 0.0 min); type: functional; details: route intraperitoneal
# NIH3T3 = assay: Cytotoxicity against mouse NIH/3T3 cells after 24 hrs by neutral red staining-based UV/visible spectrophotometric analysis; type: cell-based; details: NIH3T3, 24 h
# Mus musculus [16] = assay: Hypnotic effect in DBA mouse assessed as reduction in pentobarbital-induced onset of loss of righting reflex at 30 mg/kg, ip incubated for 30 mins prior to pentobarbital-challenge (reference value: 60.0 +/- 0.0 min); type: functional; details: route intraperitoneal
# Mus musculus [17] = assay: Hypnotic effect in DBA mouse assessed as increase in pentobarbital-induced duration of loss of righting reflex at 30 mg/kg, ip incubated for 30 mins prior to pentobarbital-challenge; type: functional; details: route intraperitoneal
# Mus musculus [18] = assay: Hypnotic effect in ip dosed DBA mouse assessed as increase in baclofen-induced duration of loss of righting reflex incubated for 30 mins prior to baclofen-challenge; type: functional, organism-based
# Mus musculus [19] = assay: Hypnotic effect in DBA mouse assessed as potentiation of pentobarbital-induced loss of righting reflex at 100 mg/kg, ip incubated for 30 mins prior to pentobarbital-challenge; type: functional, organism-based; parameters: dose 100 mg/kg
# Mus musculus [20] = assay: Hypnotic effect in DBA mouse assessed as potentiation of pentobarbital-induced loss of righting reflex at 300 mg/kg, ip incubated for 30 mins prior to pentobarbital-challenge; type: functional, organism-based; parameters: dose 300 mg/kg
# Rattus norvegicus [21] = organism: Rattus norvegicus; assay: Positive allosteric modulation of GABAB receptor in rat cortical membranes assessed as potentiation of GABA-induced [35S]GTPgammaS binding at 10 uM after 30 mins by liquid scintillation counting analysis relative to GABA; type: functional, cell membranes; details: Membrane
# Mus musculus [22] = assay: Hypnotic effect in DBA mouse assessed as potentiation of baclofen-induced loss of righting reflex at 10 mg/kg, ip incubated for 30 mins prior to baclofen-challenge; type: functional, organism-based; parameters: dose 10 mg/kg
# [23] = Intrinsic clearance in mouse liver microsomes assessed per mg protein at 5 uM after 60 mins by LC/MS/MS analysis; type: ADME, Microsome; details: read-out: CLH
# Rattus norvegicus [24] = organism: Rattus norvegicus; assay: Positive allosteric modulation of GABAB receptor in rat cortical membranes assessed as potentiation of GABA-induced [35S]GTPgammaS binding at 2.5 uM after 30 mins by liquid scintillation counting analysis relative to GABA; type: functional, cell membranes; details: Membrane
# [25] = Drug metabolism in mouse liver microsomes at 5 uM after 60 mins by LC/MS/MS analysis; type: ADME, Microsome; details: read-out: Drug metabolism
# Rattus norvegicus [26] = organism: Rattus norvegicus; assay: Positive allosteric modulation of GABAB receptor in rat cortical membranes assessed as stimulation of [35S]GTPgammaS binding up to 100 uM after 30 mins by liquid scintillation counting analysis; type: functional, cell membranes; details: Membrane
# [27] = Ratio of compound IC50 to COR627 IC50 for mouse NIH/3T3 cells; type: ADME, cell-based, NIH3T3; details: read-out: Ratio IC50
# Rattus norvegicus [28] = organism: Rattus norvegicus; assay: (§1) Positive allosteric modulation of GABAB receptor in rat cortical membranes assessed as potentiation of GABA-induced [35S]GTPgammaS binding after 30 mins by liquid scintillation counting analysis; type: functional, cell membranes; details: Membrane
# Plasma = assay: Metabolic stability in mouse plasma at 5 uM after 30 mins by HPLC-MS analysis; type: ADME, cell-free; details: 0.5 h
# Rattus norvegicus [29] = organism: Rattus norvegicus; assay: Positive allosteric modulation of GABAB receptor in rat cortical membranes assessed as potentiation of GABA-induced [35S]GTPgammaS binding at 25 uM after 30 mins by liquid scintillation counting analysis relative to GABA; type: functional, cell membranes; details: Membrane
# [30] = Ratio of compound IC50 to COR628 IC50 for mouse NIH/3T3 cells; type: ADME, cell-based, NIH3T3; details: read-out: Ratio IC50
# Mus musculus [31] = assay: Hypnotic effect in DBA mouse assessed as increase in baclofen-induced duration of loss of righting reflex over 30 mg/kg, ip incubated for 30 mins prior to baclofen-challenge relative to vehicle-treated control; type: functional, organism-based; parameters: dose 30 mg/kg
# [32] = Elimination rate constant in mouse liver microsomes at 5 uM after 60 mins by LC/MS/MS analysis; type: ADME, Microsome
# Mus musculus [33] = assay: Hypnotic effect in DBA mouse assessed as reduction in baclofen-induced onset of loss of righting reflex over 1 mg/kg, ip incubated for 30 mins prior to baclofen-challenge relative to vehicle-treated control; type: functional, organism-based; parameters: dose 1 mg/kg
# Mus musculus [34] = assay: Hypnotic effect in DBA mouse assessed as potentiation of baclofen-induced loss of righting reflex at 1 mg/kg, ip incubated for 30 mins prior to baclofen-challenge; type: functional, organism-based; parameters: dose 1 mg/kg
# Mus musculus [35] = assay: Hypnotic effect in DBA mouse assessed as increase in baclofen-induced duration of loss of righting reflex over 3 mg/kg, ip incubated for 30 mins prior to baclofen-challenge relative to vehicle-treated control; type: functional, organism-based; parameters: dose 3 mg/kg
# [36] = as §1; type: functional, cell membranes, Membrane
# Mus musculus [37] = assay: Hypnotic effect in ip dosed DBA mouse assessed as potentiation of pentobarbital-induced loss of righting reflex incubated for 30 mins prior to pentobarbital-challenge; type: functional, organism-based
# Rattus norvegicus [38] = organism: Rattus norvegicus; assay: Positive allosteric modulation of GABAB receptor in rat cortical membranes assessed as potentiation of GABA-induced [35S]GTPgammaS binding at 30 uM after 30 mins by liquid scintillation counting analysis relative to GABA; type: functional, cell membranes; details: Membrane
# Mus musculus [39] = assay: Hypnotic effect in DBA mouse assessed as increase in baclofen-induced duration of loss of righting reflex over 10 mg/kg, ip incubated for 30 mins prior to baclofen-challenge relative to vehicle-treated control; type: functional, organism-based; parameters: dose 10 mg/kg
Structure (SMILES),Time (Mus musculus [1]),Activity (Mus musculus [2]),Time (Mus musculus [3]),Activity (Mus musculus [5]),Activity (Mus musculus [6]),Activity (Mus musculus [7]),Activity (Mus musculus [8]),Time (Mus musculus [9]),Activity (Mus musculus [10]),Activity (Mus musculus [11]),Activity (Mus musculus [12]),Activity (Mus musculus [13]),Activity (Mus musculus [14]),Time (Mus musculus [15]),IC50 (NIH3T3),Time (Mus musculus [16]),Time (Mus musculus [17]),Activity (Mus musculus [18]),Activity (Mus musculus [19]),Activity (Mus musculus [22]),also measured
CSc1nc(NC2CCCC2)c([N+](=O)[O-])c(NC2CCCC2)n1 [GS-39783],2.3 min,Active,60 min,Active,inactive,Active,Active,0 min,Active,Active,Active,Dose-dependent effect,inactive,57.3 min,60 µM,60 min,0 min,Dose-dependent effect,inactive,Active,Activity (Mus musculus [4]): Active; Activity (Mus musculus [20]): Active; Activity (Rattus norvegicus [21]): 59%
CCc1c(C)sc(NC(=O)c2ccc(C(C)(C)C)cc2)c1C(=O)OC,–,Active,–,Active,–,Active,Active,–,Active,Active,–,Dose-dependent effect,Active,–,140 µM,–,–,Dose-dependent effect,–,Active,"microsomal CLint at 5 µM [23]: 8.98 µL/min/mg; Activity (Rattus norvegicus [24]): 19%; metabolised at 1 h, 5 µM [25]: 32%; Activity (Rattus norvegicus [26]): inactive; selectivity ratio [27]: 4; Activity (Rattus norvegicus [28]): inactive; Stability (Plasma): Unstable; Activity (Rattus norvegicus [29]): 23.2%; selectivity ratio [30]: 4; Activity (Mus musculus [31]): Active; k el at 1 h, 5 µM [32]: 0.000144 s⁻¹; Activity (Mus musculus [33]): Active; Activity (Mus musculus [34]): Active"
CCc1c(C)sc(NC(=O)c2ccc(C(F)(F)F)cc2)c1C(=O)OC,23.3 min,Active,45.2 min,Active,inactive,Active,Active,7 min,Active,Active,Active,Dose-dependent effect,Active,31.3 min,54 µM,54 min,2.3 min,Dose-dependent effect,inactive,Active,"microsomal CLint at 5 µM [23]: 12 µL/min/mg; Activity (Mus musculus [35]): Active; Activity (Rattus norvegicus [24]): 17.8%; metabolised at 1 h, 5 µM [25]: 40%; Activity (Rattus norvegicus [26]): inactive; EC50 [36]: 0.28 µM; Stability (Plasma): Unstable; Activity (Rattus norvegicus [29]): 27.3%; k el at 1 h, 5 µM [32]: 0.000192 s⁻¹; Activity (Mus musculus [20]): Active; Activity (Mus musculus [37]): Dose-dependent effect; Activity (Mus musculus [34]): Active; Emax (Rattus norvegicus [38]): 60%"
CCc1c(C)sc(NC(=O)c2ccc(Cl)cc2)c1C(=O)OC,7.3 min,Active,51.8 min,Active,inactive,Active,Active,4.8 min,Active,Active,Active,Dose-dependent effect,Active,45.8 min,59 µM,60 min,0 min,Dose-dependent effect,inactive,Active,"microsomal CLint at 5 µM [23]: 7.9 µL/min/mg; Activity (Rattus norvegicus [24]): 9.2%; metabolised at 1 h, 5 µM [25]: 28%; Activity (Rattus norvegicus [26]): inactive; EC50 [36]: 1.11 µM; Stability (Plasma): Unstable; Activity (Rattus norvegicus [29]): 18.3%; Activity (Mus musculus [39]): Active; k el at 1 h, 5 µM [32]: 0.000127 s⁻¹; Activity (Mus musculus [20]): Active; Activity (Mus musculus [34]): Active; Emax (Rattus norvegicus [38]): 51%"

# — ChEMBL document CHEMBL2346598, “Synthesis and pharmacological characterization of 2-(acylamino)thiophene derivatives as metabolically stable, orally effective, positive allosteric modulators of the GABAB receptor” (J Med Chem, 2013)
